The source of these data is paper PMC12494099, “Discovery and Characterization of Novel IKZF1/3 Glue Degraders against Multiple Hematological Cancer Cell Lines” (Oncology Research, 2025).

The DC50 is the midpoint of the concentration-degradation curve. As usually defined, the Dmax is the greatest extent of degradation seen. What is called IC50 is the midpoint of a concentration-inhibition curve. A low value points to greater potency.

Common to all, as to format: cell-based
The target of one experiment is T1, IKZF3-HiBiT (Homo sapiens, UniProt Q96SW2+Q9UKT9).
T1 construct: expressed in transfected cells; host or cells: HEK293T
Nature of the experiment: Quantitative degradation assay using the HiBiT system (HEK293T). The conditions noted are these: for reduction in IKZF3: 1 μM, time course; for DC50 / Dmax: HEK293T IKZF3-HiBiT, 24 h; for Dmax: HEK-293T, read-out: maximal degradation (Dmax) on IKZF3. Here is the method:
(§1) An in vitro quantitative degradation assay utilizing the HiBiT system was carried out as previously described. To evaluate the degradation of IKZF1, IKZF2, and IKZF3 proteins, HEK293T cell lines stably expressing IKZF1-, IKZF2-, IKZF3-, GSPT1- or CK1α-HiBiT were cultured in 96-well plates at 12,000 cells per well. […] After the treatment, cell lysis was carried out using the Nano-Glo HiBiT Lytic Detection System (#N3040, Promega). All lysis operations were strictly carried out according to the manufacturer’s specific protocol. Then, the SpectraMax iD3 instrument (Molecular Devices, San Jose, CA, USA) was used to detect the luminescent signals released by the HiBiT-tagged neosubstrates.
Background: HiBiT is a short tag that completes a luciferase, so light tracks the accessible tagged protein.

Another experiment concerns the target T2, IKZF1-HiBiT (Homo sapiens, UniProt Q13422+Q96SW2).
T2 construct: expressed in transfected cells; host or cells: HEK293T
Described as above. The conditions noted are these: for reduction in IKZF1: 1 μM, time course; for DC50 / Dmax: HEK293T IKZF1-HiBiT, 24 h; for Dmax: HEK-293T, read-out: maximal degradation (Dmax) on IKZF1. Here is the method:
as §1

In experiment [1] the test system is control vector MV-4-11 cells. The experiment can be described thus: Cell viability, control vector cells. The note with it: Homo sapiens, MV4-11, 96 h. Here is the method:
(§2) Multiple cell lines (NCI-H929, OPM-2, U937, Ocl-Ly3, RPMI-8226, MOLM-13, Skm-1, MUTZ-1, SU-DHL-4, TMD8, U2932, WSU-DLCL-2, MV-4-11 and KG-1 cells) were plated into 96-well plates. The plated at a density of 15,000 cells per well, and each well contained 100 µL of medium. Subsequently, different compounds (MGD-AX, MGD-BX, MGD-CX) were added to each well. These compounds’ concentrations were set at 0, 0.01, 0.033, 0.1, 0.33, 1, 3.3, 10 and 33 μM, and the cells were incubated with the compounds for 96 h. To evaluate the antiproliferative effects of these compounds, the Cell Counting Kit-8 (CCK-8, #CX007, Epizyme, Shanghai, China) was used. All procedures were carried out in strict accordance with the manufacturer’s instructions (Dojindo Laboratories, Mamoto Ken, Japan). The half maximal inhibitory concentrations (IC50) values, which represent the concentrations of the test compounds that can inhibit 50% of cell activity, were calculated using GraphPad Prism 8.0 (GraphPad Software Inc., San Diego, CA, USA).
(§3) […] NCI-H929 and MV-4-11 cells were seeded at a density of 1 × 10^6 cells/well in 6-well tissue culture-treated plates. According to the manufacturer’s protocol (Santa Cruz Biotechnology, Inc, Dallas, TX, USA), CRBN CRISPR/Cas9 knockout Plasmid (#sc-412142), CRBN HDR plasmid (#sc-412142-HDR), UltraCruz® Transfection Reagent (#sc-395739) were pre-mixed in Plasmid Transfection Medium (#sc-108062) at a 1:1:2 mass ratio, and cells were transiently transfected in a 37°C, 5% CO2 incubator. After 72 h of infection, the medium was replaced with complete medium containing 3 μg/mL puromycin for 5–7 days. On day 7, GFP-positive cells were sorted as single cells into 96-well plates. Isolated single-cell clones were screened via western blot analysis, using wild-type NCI-H929 or MV-4-11 cells as positive controls.

For experiment [2], the system named is control vector NCI-H929 cells. The experiment can be described thus: Cell viability, control vector cells. The conditions noted are these: Homo sapiens, NCI-H929, 96 h. Here is the method:
as §2, §3

In a further experiment the test system is CRBN^−/− MV-4-11 cells. The experiment can be described thus: Cell viability, CRBN knockout cells. The conditions noted are these: Homo sapiens, MV4-11, 96 h. Here is the method: as §2, §3
The next experiment relates to CRBN^−/− NCI-H929 cells. The experiment can be described thus: Cell viability, CRBN knockout cells. The conditions noted are these: Homo sapiens, NCI-H929, 96 h. Here is the method:
as §2, §3

A further experiment deals with T3, endogenous GSPT1 (Homo sapiens, UniProt P15170).
T3 construct: endogenous in cells; host or cells: NCI-H929 and MV-4-11
The experiment can be described thus: Immunoblot analysis of endogenous protein. The conditions noted are these: both NCI-H929 and MV-4-11 cells, up to 10 μM, 24 h. As for the experimental part:
(§4) Cells (NCI-H929 and MV-4-11) were plated into 6-well plates. They were then treated with different concentrations (0, 0.01, 0.1, 1, 10 μM) of the compounds (MGD-A7, MGD-C9) or the designated time periods. Afterward, the cells were washed with phosphate-buffered saline (PBS, pH = 7.2–7.4, 1×). Next, they were lysed using RIPA buffer (#R0278-500ML, Sigma-Aldrich, MO, USA), and the cell lysates were precisely measured. Following this, the total protein lysates underwent 10% sodium dodecyl sulfate-polyacrylamide gel electrophoresis (SDS-PAGE). This method efficiently separated the proteins based on their molecular weights. Subsequently, the separated proteins were transferred onto a nitrocellulose membrane (#HATF00010, […], Madison, WI, USA). The membranes were then successively incubated with the indicated primary antibodies. These antibodies were diluted in 5% bovine serum albumin (BSA) in Tris-buffered saline with Tween 20 (TBST, #TF103; Epizyme, Shanghai, China). The incubation was conducted overnight at 4°C with gentle agitation. The secondary antibodies were also diluted in 5% BSA in TBST (#TF103; Epizyme, Shanghai, China). […] Finally, after thorough washing with TBST, the membranes were developed using an enhanced chemiluminescence (ECL) substrate (#WBULS0100, Sigma-Aldrich). The chemiluminescent signal was detected, and membrane images were captured with an Imaging system (Bio-Rad, Hercules, CA, USA). ImageJ analysis software (V1.8.0.112, National Institutes of Health, NIH, Bethesda, MD, USA) was employed to analyze the intensity of protein bands, aiming to quantify the relative expression levels of the target proteins. The half-maximal degradation concentration (DC50) value, which indicates the concentrations of test compounds showing 50% protein degradation efficacy, was calculated using GraphPad Prism 8.0.
A general note: A western blot detects proteins with antibodies after separation by electrophoresis.

A further experiment concerns the target T4, endogenous IKZF3 (Homo sapiens, UniProt Q96SW2+Q9UKT9).
T4 construct: endogenous in cells; host or cells: NCI-H929 and MV-4-11
The experiment can be described thus: Immunoblot analysis of endogenous protein. The conditions noted are these: both NCI-H929 and MV-4-11 cells, 24 h, greater than pomalidomide. As for the experimental part:
as §4

The target in the next experiment is T5, endogenous IKZF1 (Homo sapiens, UniProt Q13422+Q96SW2).
T5 construct: endogenous in cells; host or cells: NCI-H929 and MV-4-11
Nature of the experiment: Immunoblot analysis of endogenous protein. The conditions noted are these: both NCI-H929 and MV-4-11 cells, 24 h, greater than pomalidomide. Here is the method: as §4

The target in the next experiment is T6, endogenous CK1α (Homo sapiens, UniProt P48729).
T6 construct: endogenous in cells; host or cells: NCI-H929 and MV-4-11
Nature of the experiment: Immunoblot analysis of endogenous protein. The note with it: both NCI-H929 and MV-4-11 cells, up to 10 μM, 24 h. Here is the method: as §4

Structures are written as SMILES.

T1 sequence (Q9UKT9 whole entry): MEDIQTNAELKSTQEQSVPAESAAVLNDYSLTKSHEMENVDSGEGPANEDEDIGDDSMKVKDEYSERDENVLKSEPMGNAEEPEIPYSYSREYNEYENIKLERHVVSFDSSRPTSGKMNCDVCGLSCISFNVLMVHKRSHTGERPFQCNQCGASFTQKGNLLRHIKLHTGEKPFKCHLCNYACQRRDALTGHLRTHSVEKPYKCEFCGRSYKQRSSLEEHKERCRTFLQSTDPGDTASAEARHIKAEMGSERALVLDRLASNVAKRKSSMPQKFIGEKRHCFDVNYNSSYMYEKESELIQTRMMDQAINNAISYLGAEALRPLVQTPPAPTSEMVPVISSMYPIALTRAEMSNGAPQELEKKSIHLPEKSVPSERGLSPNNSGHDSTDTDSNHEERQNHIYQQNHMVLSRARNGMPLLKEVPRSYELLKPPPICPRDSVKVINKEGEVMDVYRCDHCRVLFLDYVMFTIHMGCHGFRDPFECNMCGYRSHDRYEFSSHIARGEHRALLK
T1 sequence (Q96SW2 whole entry): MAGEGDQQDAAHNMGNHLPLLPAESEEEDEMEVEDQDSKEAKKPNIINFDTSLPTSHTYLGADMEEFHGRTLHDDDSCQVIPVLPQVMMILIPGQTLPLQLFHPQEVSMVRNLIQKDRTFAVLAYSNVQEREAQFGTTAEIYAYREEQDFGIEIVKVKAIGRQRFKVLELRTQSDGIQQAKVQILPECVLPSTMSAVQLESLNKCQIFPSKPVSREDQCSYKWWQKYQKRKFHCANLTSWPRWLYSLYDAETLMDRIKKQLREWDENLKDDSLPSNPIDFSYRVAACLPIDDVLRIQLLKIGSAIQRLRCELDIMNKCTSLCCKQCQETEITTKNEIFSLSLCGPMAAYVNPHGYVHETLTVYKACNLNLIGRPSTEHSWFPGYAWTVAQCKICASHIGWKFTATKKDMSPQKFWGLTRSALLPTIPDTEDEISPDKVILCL
T1 sequence (Q16531 whole entry partner): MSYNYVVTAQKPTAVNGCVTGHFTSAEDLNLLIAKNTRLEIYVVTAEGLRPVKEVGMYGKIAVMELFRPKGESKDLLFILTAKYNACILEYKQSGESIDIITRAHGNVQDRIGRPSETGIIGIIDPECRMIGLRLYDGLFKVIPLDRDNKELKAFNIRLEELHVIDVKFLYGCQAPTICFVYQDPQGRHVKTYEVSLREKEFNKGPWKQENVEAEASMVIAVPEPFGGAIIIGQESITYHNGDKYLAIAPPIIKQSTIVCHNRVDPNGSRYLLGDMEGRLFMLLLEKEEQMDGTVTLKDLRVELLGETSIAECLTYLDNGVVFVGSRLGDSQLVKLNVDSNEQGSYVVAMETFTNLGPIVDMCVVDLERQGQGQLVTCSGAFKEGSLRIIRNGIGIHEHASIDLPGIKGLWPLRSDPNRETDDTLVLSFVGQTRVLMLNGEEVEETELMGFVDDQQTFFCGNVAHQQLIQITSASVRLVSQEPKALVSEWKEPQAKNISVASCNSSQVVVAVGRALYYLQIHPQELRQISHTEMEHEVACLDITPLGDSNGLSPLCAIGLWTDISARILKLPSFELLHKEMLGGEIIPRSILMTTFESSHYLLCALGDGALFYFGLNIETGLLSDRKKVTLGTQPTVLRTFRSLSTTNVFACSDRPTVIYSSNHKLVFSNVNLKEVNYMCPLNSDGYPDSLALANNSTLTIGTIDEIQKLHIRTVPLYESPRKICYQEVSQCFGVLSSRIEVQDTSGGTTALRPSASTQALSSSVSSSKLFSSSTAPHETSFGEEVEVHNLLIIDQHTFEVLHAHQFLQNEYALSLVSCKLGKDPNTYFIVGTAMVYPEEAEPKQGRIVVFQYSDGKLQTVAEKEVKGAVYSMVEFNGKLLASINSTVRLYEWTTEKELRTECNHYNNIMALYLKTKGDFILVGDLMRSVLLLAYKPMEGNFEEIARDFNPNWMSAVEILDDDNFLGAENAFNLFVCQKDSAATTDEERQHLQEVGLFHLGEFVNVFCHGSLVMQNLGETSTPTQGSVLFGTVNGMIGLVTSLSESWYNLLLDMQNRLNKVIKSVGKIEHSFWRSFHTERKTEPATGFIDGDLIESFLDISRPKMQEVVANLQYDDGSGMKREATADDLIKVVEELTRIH
T2 sequence (Q13422 whole entry): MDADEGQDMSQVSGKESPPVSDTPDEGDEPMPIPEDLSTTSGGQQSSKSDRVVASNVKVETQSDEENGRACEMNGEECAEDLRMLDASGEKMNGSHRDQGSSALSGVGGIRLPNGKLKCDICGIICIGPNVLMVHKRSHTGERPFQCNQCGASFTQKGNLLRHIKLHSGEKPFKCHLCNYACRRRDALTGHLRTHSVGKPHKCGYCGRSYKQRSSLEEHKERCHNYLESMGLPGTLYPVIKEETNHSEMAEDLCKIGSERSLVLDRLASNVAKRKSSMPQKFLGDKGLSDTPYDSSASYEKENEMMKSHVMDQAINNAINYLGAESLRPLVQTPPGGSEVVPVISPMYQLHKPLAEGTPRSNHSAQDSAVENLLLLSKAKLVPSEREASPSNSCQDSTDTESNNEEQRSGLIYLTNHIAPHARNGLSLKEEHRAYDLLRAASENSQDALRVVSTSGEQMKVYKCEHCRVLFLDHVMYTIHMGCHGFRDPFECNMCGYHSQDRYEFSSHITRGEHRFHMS
T2 sequence (Q96SW2 whole entry): as the sequence (Q96SW2 whole entry) above
T2 sequence (Q16531 whole entry partner): as the sequence (Q16531 whole entry partner) above
T4 sequence (Q9UKT9 whole entry): as the sequence (Q9UKT9 whole entry) above
T4 sequence (Q96SW2 whole entry): as the sequence (Q96SW2 whole entry) above
T4 sequence (Q16531 whole entry partner): as the sequence (Q16531 whole entry partner) above
T5 sequence (Q13422 whole entry): as the sequence (Q13422 whole entry) above
T5 sequence (Q96SW2 whole entry): as the sequence (Q96SW2 whole entry) above
T5 sequence (Q16531 whole entry partner): as the sequence (Q16531 whole entry partner) above
T6 sequence (Q96SW2 whole entry partner): as the sequence (Q96SW2 whole entry) above
T6 sequence (Q16531 whole entry partner): as the sequence (Q16531 whole entry partner) above
T6 sequence (P48729 whole entry): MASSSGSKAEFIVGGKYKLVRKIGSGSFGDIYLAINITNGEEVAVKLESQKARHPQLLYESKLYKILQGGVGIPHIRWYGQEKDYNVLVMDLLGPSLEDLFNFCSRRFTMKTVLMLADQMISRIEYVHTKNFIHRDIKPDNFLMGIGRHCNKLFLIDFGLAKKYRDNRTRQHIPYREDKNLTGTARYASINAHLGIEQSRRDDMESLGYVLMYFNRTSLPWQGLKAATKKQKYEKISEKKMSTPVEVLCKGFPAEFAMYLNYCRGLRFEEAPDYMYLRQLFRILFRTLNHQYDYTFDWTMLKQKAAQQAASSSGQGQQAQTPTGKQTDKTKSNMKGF
T3 sequence (Q96SW2 whole entry partner): as the sequence (Q96SW2 whole entry) above
T3 sequence (Q16531 whole entry partner): as the sequence (Q16531 whole entry partner) above
T3 sequence (P15170 whole entry): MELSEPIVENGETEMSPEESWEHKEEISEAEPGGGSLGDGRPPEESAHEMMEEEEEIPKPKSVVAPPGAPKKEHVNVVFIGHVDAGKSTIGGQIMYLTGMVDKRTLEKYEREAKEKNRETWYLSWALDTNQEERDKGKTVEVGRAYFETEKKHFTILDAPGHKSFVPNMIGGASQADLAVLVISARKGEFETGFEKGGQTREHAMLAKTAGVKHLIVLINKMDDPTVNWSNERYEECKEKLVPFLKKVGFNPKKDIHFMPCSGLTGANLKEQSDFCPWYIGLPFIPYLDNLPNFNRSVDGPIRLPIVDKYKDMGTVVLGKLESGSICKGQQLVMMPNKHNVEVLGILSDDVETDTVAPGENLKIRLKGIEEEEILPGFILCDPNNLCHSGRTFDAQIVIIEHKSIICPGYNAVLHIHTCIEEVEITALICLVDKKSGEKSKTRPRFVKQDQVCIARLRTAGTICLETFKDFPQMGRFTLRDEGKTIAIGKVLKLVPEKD

For the compound `CN1CCN(Cc2cccc(C(=O)NC3CCC(=O)NC3=O)c2)CC1` (stereo not shown) [MGD-A7, N-(2,6-dioxopiperidin-3-yl)-3-((4-methylpiperazin-1-yl)methyl)benzamide], the “reduction in IKZF3” value at IKZF3-HiBiT (12 h) is recorded as over 80%. Further, the DC50 at IKZF3-HiBiT is 110 nM; at IKZF1-HiBiT it was 249 nM. Further, the Dmax on IKZF3-HiBiT was determined as 86.4%; on IKZF1-HiBiT it was 89.4%. Moreover, the “reduction in IKZF1” value at IKZF1-HiBiT (12 h) is over 60%. Further, the IC50 in [1] is 676 nM; in experiment [2] it was 638 nM; in the experiment with CRBN^−/− MV-4-11 cells, over 33000 nM; in the experiment on CRBN^−/− NCI-H929 cells, over 33000 nM. Further, on endogenous GSPT1, the “degradation of endogenous GSPT1” value is given as “minimal degradation effects”. Moreover, the “degradation of endogenous IKZF3” value at endogenous IKZF3 is reported as “effectively induced the degradation”. The “degradation of endogenous IKZF1” value at endogenous IKZF1 was “effectively induced the degradation”. Further, the “degradation of endogenous CK1α” value on endogenous CK1α is “minimal degradation effects”.

As for `CN1CCN(Cc2cccc(C(=O)NC3CCC(=O)NC3=O)c2F)C(=O)C1` (stereo not shown) [MGD-C9, N-(2,6-dioxopiperidin-3-yl)-2-fluoro-3-((4-methyl-2-oxopiperazin-1-yl)methyl)benzamide], the “reduction in IKZF3” value on IKZF3-HiBiT (8 h) is listed as over 70%. In addition, the 50% degradation concentration (DC50) at IKZF3-HiBiT amounted to 57 nM; at IKZF1-HiBiT it was 96 nM. In addition, the values for the Dmax at IKZF3-HiBiT and on IKZF1-HiBiT were 92.1% and 90.3%, respectively. Further, the “reduction in IKZF1” value on IKZF1-HiBiT (8 h) is recorded as over 60%. The half-inhibitory concentration (IC50) is 198 nM in [1], 313 nM in experiment [2], over 33000 nM in the experiment on CRBN^−/− MV-4-11 cells and over 33000 nM with CRBN^−/− NCI-H929 cells. Also, the “degradation of endogenous GSPT1” value at endogenous GSPT1 was “minimal degradation effects”. Further, on endogenous IKZF3, the “degradation of endogenous IKZF3” value was “effectively induced the degradation”. Moreover, the “degradation of endogenous IKZF1” value at endogenous IKZF1 is given as “effectively induced the degradation”. The “degradation of endogenous CK1α” value at endogenous CK1α was “minimal degradation effects”.
